Assay results taken from ChEMBL document CHEMBL1157984, “Tsugicoline E, a new polyoxygenated protoilludane sesquiterpene from the fungus laurilia tsugicola1” (J Nat Prod, 1999).
Calls of active or inactive are those of the source.

Assays:
Assay type in all cases: functional, organism-based
[1] = test system: Bacillus subtilis; experiment: Antimicrobial activity against Bacillus subtilis at 100 ug/disk
[2] = test system: Bacillus cereus; experiment: Antimicrobial activity against Bacillus cereus at 100 ug/disk
[3] = test system: Saccharomyces cerevisiae; experiment: Antimicrobial activity against Saccharomyces cerevisiae at 100 ug/disk

Measured: Activity

CC1(C)C[C@H]2[C@H](O)[C@]3(O)CO[C@]4(O)[C@@H](O)[C@@](C)([C@H]34)[C@H]2C1
inactive: [1] | [2] | [3]
